Test results from patent publication US20240196898A1, “INSANITARY INSECT PEST CONTROL METHOD USING CONDENSED HETEROCYCLIC COMPOUND” (SUMITOMO CHEMICAL COMPANY, LIMITED, priority 2021, published 2024).

Legend:
Type in all cases: in vivo
[1] = test system: German cockroaches (Blattella germanica); assay: Test Example 1: vial inner-wall residual contact test, German cockroaches; conditions: German cockroach, read-out: Moribund and mortal rates (%); for mortality at 5 mg/m2: 5 mg/m^2 treated per area; for mortality at 50 mg/m2: 50 mg/m^2 treated per area; for mortality at 150 mg/m2: 150 mg/m^2 treated per area; for mortality at 300 mg/m2: 300 mg/m^2 treated per area; for mortality at 1000 mg/m2: 1,000 mg/m^2 treated per area
Experimental: In a 20 mL volume vial, 0.2 mL of an acetone solution (containing 0.09% of a surfactant added therein) which contains prescribed amount of the present compound A, the present compound B, comparative compound 1, comparative compound 2, comparative compound 3, or comparative compound 4 was added dropwise and the inner wall of the vial was coated homogeneously with the chemicals and then air-dried. Thereafter, five German cockroaches (Blattella germanica) were released and the vial was sealed with a lid. […] Dead individuals are completely immobile individuals, and moribund individuals are individuals who cannot get up when turned on their backs, and are non-ambulatory.
Moribund and mortal rates (%)={(number of dead individuals+number of moribund individuals)/number of tested individuals}×100 (Equation 1)
The amount to be treated per area was set at 1000, 300, 150, 50 and 5 mg/m^2.

[2] = test system: African malaria mosquitos (Anopheles gambiae); assay: Test Example 2: vial inner-wall contact test, 50 minutes exposure, female adult African malaria mosquitos; conditions: Anopheles gambiae female adults, after 4 days, read-out: Moribund and mortal rates (%) after 4 days; for mortality at 5 mg/m2: 5 mg/m^2 treated per area; for mortality at 10 mg/m2: 10 mg/m^2 treated per area; for mortality at 300 mg/m2: 300 mg/m^2 treated per area
Experimental: In a 250 mL volume vial, 1.0 mL of an acetone solution (containing 0.09% of a surfactant added therein) which contains prescribed amount of the present compound A, the present compound B, comparative compound 1, comparative compound 2, comparative compound 3, or comparative compound 4 was added dropwise and the inner wall of the vial was coated homogeneously with the chemicals and then air-dried. Thereafter, female adult African malaria mosquitos (Anopheles gambiae) were released and the vial was sealed with a lid, followed by exposure for 50 minutes. 50 Minutes after exposure, African malaria mosquitos were transferred to a new plastic cup, followed by feeding sugar water. After 4 days, the number of dead and moribund individuals of African malaria mosquitos was examined, and moribund and mortal rates (%) were determined by the equation 2 below. Dead individuals are completely immobile individuals, and moribund individuals are individuals who are flightless and non-ambulatory.
Moribund and mortal rates (%)={(number of dead individuals+number of moribund individuals)/number of tested individuals}×100 (Equation 2)
The amount to be treated per area was set at 300, 10 and 5 mg/m^2.

[3] = test system: little red worker ants (Monomorium pharaonis); assay: Test Example 3: vial inner-wall contact test, 1 hour exposure, little red worker ants; conditions: Monomorium pharaonis workers, after 1 day, read-out: Moribund and mortal rates (%) after 1 day; for mortality at 5 mg/m2: 5 mg/m^2 treated per area; for mortality at 100 mg/m2: 100 mg/m^2 treated per area; for mortality at 300 mg/m2: 300 mg/m^2 treated per area
Experimental: In a 20 mL volume vial, 0.2 mL of an acetone solution (containing 0.09% of a surfactant added therein) which contains prescribed amount of the present compound A, the present compound B, comparative compound 1, comparative compound 2, comparative compound 3, or comparative compound 4 was added dropwise and the inner wall of the vial was coated homogeneously with the chemicals and then air-dried. Thereafter, little red worker ants (Monomorium pharaonis) were released and the vial was sealed with a lid. After 1 hour, little red worker ants in the vial were transferred to a new plastic cup, followed by feeding […] sucrose water. After 1 day, the number of dead and moribund individuals was examined, and moribund and mortal rates (%) were determined by the equation 3 below. Dead individuals are completely immobile individuals, and moribund individuals are individuals who cannot get up when turned on their backs, and are non-ambulatory.
Moribund and mortal rates (%)={(number of dead individuals+number of moribund individuals)/number of tested individuals}×100 (Equation 3)
The amount to be treated per area was set at 300, 100 and 5 mg/m^2.

[4] = test system: Formosan subterranean worker termites (Coptotermes formosanus); assay: Test Example 4: treated filter paper contact test, 1 hour exposure, Formosan subterranean worker termites; conditions: Coptotermes formosanus workers, after 3 days, read-out: Moribund and mortal rates (%) after 3 days; for mortality at 300 mg/m2: 300 mg/m^2 treated per area; for mortality at 500 mg/m2: 500 mg/m^2 treated per area; for mortality at 1000 mg/m2: 1,000 mg/m^2 treated per area
Experimental: 0.6 mL of an acetone solution containing prescribed amount of the present compound A, the present compound B, comparative compound 1, comparative compound 2, comparative compound 3, or comparative compound 4 was added dropwise on a filter paper having a diameter of 82 mm, followed by air drying. The filter paper was attached to a plastic petri dish having a diameter of 90 mm without gaps by adding dropwise 1.4 mL of water, and then Formosan subterranean worker termites (Coptotermes formosanus) were released and the vial was sealed with a lid, followed by exposure for 1 hours. After exposure for 1 hour, Formosan subterranean worker termites were transferred to a new plastic cup with bottom lined with the filter paper, followed by feeding water. After 3 days, the number of dead and moribund individuals of Formosan subterranean worker termites was examined, and moribund and mortal rates (%) were determined by the equation 4 below. Dead individuals are completely immobile individuals, and moribund individuals are individuals who are flightless and non-ambulatory.
Moribund and mortal rates (%)={(number of dead individuals+number of moribund individuals)/number of tested individuals}×100 (Equation 4)
The amount to be treated per area was set at 1,000, 500 and 300 mg/m^2.

| Compound | mortality at 5 mg/m2 [1] | mortality at 50 mg/m2 [1] | mortality at 150 mg/m2 [1] | mortality at 300 mg/m2 [1] | mortality at 1000 mg/m2 [1] | mortality at 5 mg/m2 [2] | mortality at 10 mg/m2 [2] | mortality at 300 mg/m2 [2] | mortality at 5 mg/m2 [3] | mortality at 100 mg/m2 [3] | mortality at 300 mg/m2 [3] | mortality at 300 mg/m2 [4] | mortality at 500 mg/m2 [4] | mortality at 1000 mg/m2 [4] |
| --- | --- | --- | --- | --- | --- | --- | --- | --- | --- | --- | --- | --- | --- | --- |
| CCS(=O)(=O)c1cc(C(F)(F)F)cnc1-c1nc2cc(S(=O)(=O)C(F)(F)F)ccc2o1 [Comparative compound 2] | 10% | 10% | 20% | 50% | 100% | 8% | 13% | 15% | 20% | 50% | 100% | 10% | 20% | 100% |
| CCS(=O)(=O)c1cc(C)cnc1-c1nc2cc(S(=O)(=O)C(F)(F)F)ccc2o1 [Comparative compound 4] | 10% | 10% | 20% | 30% | 100% | 8% | 15% | 26% | 10% | 20% | 100% | 10% | 10% | 100% |
| CCS(=O)(=O)c1cc(C(F)(F)F)cnc1-c1nc2cc([S+]([O-])C(F)(F)F)ccc2o1 (stereo not drawn) [Comparative compound 1] | 10% | 30% | 50% | 50% | 100% | 3% | 43% | 53% | 30% | 40% | 100% | 10% | 30% | 100% |
| CCS(=O)(=O)c1cc(C2CC2)cnc1-c1nc2cc(S(=O)(=O)C(F)(F)F)ccc2o1 [Present compound B] | 100% | 100% | 100% | 100% | 100% | 100% | 100% | 100% | 100% | 100% | 100% | 100% | 100% | 100% |
| CCS(=O)(=O)c1cc(C2CC2)cnc1-c1nc2cc([S+]([O-])C(F)(F)F)ccc2o1 (stereo not drawn) [Present compound A] | 100% | 100% | 100% | 100% | 100% | 100% | 100% | 100% | 100% | 100% | 100% | 100% | 100% | 100% |
| CCS(=O)(=O)c1cc(C)cnc1-c1nc2cc([S+]([O-])C(F)(F)F)ccc2o1 (stereo not drawn) [Comparative compound 3] | 10% | 30% | 30% | 40% | 100% | 6% | 7% | 35% | 10% | 30% | 100% | 10% | 10% | 100% |
